The values below are quoted from earlier work in patent US12370144B2, “Centanafadine pharmaceutical formulations, and methods of making and using same” (OTSUKA PHARMACEUTICAL CO., LTD., priority 2021, dated 2025).

For data set [1], the target named is norepinephrine reuptake transporter (NET) (Homo sapiens, UniProt P23975). To be noted: triple reuptake inhibitor, rank of potency.
Data set [2] deals with dopamine reuptake transporter (DAT) (Homo sapiens, UniProt Q01959). The note with it: fraction of the potency towards NET.
The target of data set [3] is serotonin reuptake transporter (SERT) (Homo sapiens, UniProt P31645). The note with it: fraction of the potency towards NET.
For data set [4] the following is noted: not told.

serotonin reuptake transporter (SERT), sequence (P31645 whole entry, species assumed): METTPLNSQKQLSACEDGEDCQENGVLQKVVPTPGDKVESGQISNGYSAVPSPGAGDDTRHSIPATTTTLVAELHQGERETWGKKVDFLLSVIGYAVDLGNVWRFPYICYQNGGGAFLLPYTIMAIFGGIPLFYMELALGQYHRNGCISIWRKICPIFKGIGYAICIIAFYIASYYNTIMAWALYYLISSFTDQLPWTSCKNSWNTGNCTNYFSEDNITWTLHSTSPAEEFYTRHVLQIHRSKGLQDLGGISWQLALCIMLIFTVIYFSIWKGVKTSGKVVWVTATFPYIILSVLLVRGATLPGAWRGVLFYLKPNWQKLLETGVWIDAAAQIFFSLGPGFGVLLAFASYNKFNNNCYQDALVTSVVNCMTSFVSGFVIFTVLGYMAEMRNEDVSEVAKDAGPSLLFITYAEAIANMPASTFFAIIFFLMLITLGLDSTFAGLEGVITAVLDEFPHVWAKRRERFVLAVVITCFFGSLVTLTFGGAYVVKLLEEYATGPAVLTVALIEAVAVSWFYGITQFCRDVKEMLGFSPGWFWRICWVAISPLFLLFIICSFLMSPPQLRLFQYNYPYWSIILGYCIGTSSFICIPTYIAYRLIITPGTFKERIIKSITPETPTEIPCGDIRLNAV
dopamine reuptake transporter (DAT), sequence (Q01959 whole entry, species assumed): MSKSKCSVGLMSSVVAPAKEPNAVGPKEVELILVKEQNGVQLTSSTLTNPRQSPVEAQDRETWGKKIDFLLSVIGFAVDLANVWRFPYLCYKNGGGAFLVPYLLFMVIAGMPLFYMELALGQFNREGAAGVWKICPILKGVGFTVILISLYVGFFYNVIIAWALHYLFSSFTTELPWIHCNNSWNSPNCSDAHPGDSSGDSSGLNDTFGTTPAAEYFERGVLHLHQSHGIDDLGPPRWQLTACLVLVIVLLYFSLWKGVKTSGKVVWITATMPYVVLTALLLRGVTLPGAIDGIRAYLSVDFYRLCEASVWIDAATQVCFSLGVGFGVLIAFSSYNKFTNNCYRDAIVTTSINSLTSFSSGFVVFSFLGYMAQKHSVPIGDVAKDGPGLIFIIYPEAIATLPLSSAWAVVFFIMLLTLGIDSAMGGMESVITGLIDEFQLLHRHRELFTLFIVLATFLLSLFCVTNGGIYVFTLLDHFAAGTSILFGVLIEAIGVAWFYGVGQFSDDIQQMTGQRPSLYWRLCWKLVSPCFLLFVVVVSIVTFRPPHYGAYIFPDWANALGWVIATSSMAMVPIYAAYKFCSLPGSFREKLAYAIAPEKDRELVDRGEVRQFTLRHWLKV
norepinephrine reuptake transporter (NET), sequence (P23975 whole entry): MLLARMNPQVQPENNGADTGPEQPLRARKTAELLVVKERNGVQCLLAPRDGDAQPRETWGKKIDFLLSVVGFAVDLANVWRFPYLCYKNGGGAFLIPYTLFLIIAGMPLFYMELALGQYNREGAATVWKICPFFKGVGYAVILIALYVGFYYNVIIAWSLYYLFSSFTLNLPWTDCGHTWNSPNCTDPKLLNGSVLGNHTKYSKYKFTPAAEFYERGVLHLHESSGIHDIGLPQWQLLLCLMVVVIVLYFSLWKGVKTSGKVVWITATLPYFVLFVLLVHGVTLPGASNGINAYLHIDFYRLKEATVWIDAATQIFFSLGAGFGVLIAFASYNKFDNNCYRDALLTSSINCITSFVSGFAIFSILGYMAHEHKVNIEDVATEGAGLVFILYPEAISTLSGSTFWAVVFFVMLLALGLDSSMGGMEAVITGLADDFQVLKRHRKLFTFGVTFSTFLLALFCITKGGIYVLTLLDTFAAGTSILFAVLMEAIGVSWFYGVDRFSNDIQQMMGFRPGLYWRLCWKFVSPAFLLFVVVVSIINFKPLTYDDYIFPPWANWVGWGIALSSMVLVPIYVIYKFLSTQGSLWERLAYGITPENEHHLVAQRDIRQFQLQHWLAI

`c1ccc2cc([C@]34CNC[C@H]3C4)ccc2c1` [centanafadine, (1R,5S)-1-(naphthalen-2-yl)-3-azabicyclo[3.1.0]hexane]: in data set [1], the “Potency towards NET” value is listed as “most potency”. Besides, the “Potency towards DAT relative to NET” value in data set [2] is on record as “one-sixth”. Also, the “Potency towards SERT relative to NET” value in data set [3] is on record as “one-fourteenth”. Further, in data set [4], the Permeability entry is listed as “highly permeable”.
